Format in all cases: cell-based
Test [1] has as its system bacterial strains and fungal strain tested. Nature of the test: Bactericidal and fungicidal activities on the strains tested (overall statement). As to conditions: bacterial strains 1-4 and fungal strain 5. The method, then: The bactericidal and fungicidal activities of the products according to the invention were studied on different strains.
(§1) A bacterial inoculum is brought into contact with different dilutions of the test product for a limited time of 30 minutes. When the contact time has ended, an aliquot of the bacterial suspension/product mixture is deposited on the surface of a gelose culture medium containing an agent for neutralizing the antibacterial activity of the product. The bactericidal concentration chosen is the minimum concentration of the product which is necessary to prevent bacterial growth. This concentration is expressed in μg/ml.
(§2) Plates containing cups receive different dilutions of the test product. These dilutions of the test product are brought into contact with the different bacterial suspensions using a multiple-site inoculator. After a contact time of 30 minutes, aliquots are transferred by means of this inoculator to the surface of a gelose medium (TSA) placed in petri dishes and containing an agent for neutralizing the activity, namely 20 g of lubrol W, 2.5 g of Tween 80, 2.5 g of sodium thiosulfate and 1% of egg yolk in 1000 ml of TSA (Difco). A reference for the efficacy of the neutralizing agent is prepared for each test product by depositing an aliquot of the dilution of the test product on the surface of the culture medium. After drying, the corresponding inoculum is deposited in the same place. A reference inoculum is prepared on a gelose medium with and without neutralizing agent. The results are read off after 48 hours of incubation at 37° C.
(§3) The antifungal activity of the products according to the invention was also determined using the method described above. The representative strain of yeast selected for the study was Candida albicans CNCM 1180 (strain 5).
By way of comparison, 3-aryloxy-1-piperidinopropan-2-ol derivatives described in the literature, or similar to the compounds described, were prepared and the bactericidal and fungicidal activities of these compounds and of propranolol were measured on the same strains and under the same conditions as for the products according to the invention. The results are reported in Table II after those obtained with the products according to the invention.

The test system of test [2] is Pseudomonas aeruginosa CNCM A22. Nature of the test: Minimum bactericidal concentration, 30 min contact, strain 3. Particulars: for MBC: CNCMA22, 0.5 h, read-out: MBC, strain 3. As for the experimental part: as §1
3 - Pseudomonas aeruginosa CNCM A22;
(§4) The strains are maintained on Tryptic Soy Agar (TSA) marketed by Difco.
(§5) After 24 hours of culture at 37° C., the microbial growth is harvested with the aid of glass beads and 10 ml of diluent containing 1 g of tryptone and 8.5 g of sodium chloride in 1000 ml of distilled water. The suspension formed is shaken and the percentage transmission of light at 620 nm is measured on a spectrophotometer:
(§6) The bacterial inoculum corresponds to a 1/20 dilution of this bacterial suspension.
as §2
(§7) They indicate the minimum bactericidal concentrations (MBC) for strains 1, 2, 3 and 4 and the minimum fungicidal concentrations (MFC) for strain 5.

Test [3] deals with Staphylococcus aureus CNCM 53154. The test can be described thus: Minimum bactericidal concentration, 30 min contact, strain 1. As to conditions: for MBC: CNCM53154, 0.5 h, read-out: MBC, strain 1. The method, then:
as §1
1 - Staphylococcus aureus CNCM 53154;
as §4, §5, §6, §2, §7

Test [4] has as its system Escherichia coli CNCM 54127. The test can be described thus: Minimum bactericidal concentration, 30 min contact, strain 4. Particulars: for MBC: CNCM54127, 0.5 h, read-out: MBC, strain 4. The method, then:
as §1
4 - Escherichia coli CNCM 54127.
as §4, §5, §6, §2, §7

Test [5] deals with Candida albicans CNCM 1180. Nature of the test: Minimum fungicidal concentration, strain 5. Particulars: for MFC: CNCM1180, 0.5 h, read-out: MFC, strain 5. As for the experimental part: as §1, §2, §3
This is maintained on a gelose medium of Sabouraud Dextrose Agar, marketed by Difco. The technique is identical to that described for studying the antibacterial activity. After 48 hours of culture at 37° C., the microbial growth is harvested with the aid of glass beads and 5 ml of diluent containing 1 g of tryptone and 8.5 g of sodium chloride in 1000 ml of distilled water; a further 5 ml of the diluent are then added. In a spectrophotometer, this suspension gives a 2 to 3% transmission of light at 620 nm. The inoculum corresponds to a 1/10 dilution of this microbial suspension. A 1/100 dilution of this suspension, observed between a microscope slide and cover slip through a lens of magnification 40, should show 10 cells per field, which corresponds to 1 000 000 yeasts per ml.
as §7

Test [6] has as its system Streptococcus faecalis CNCM 5855. Nature of the test: Minimum bactericidal concentration, 30 min contact, strain 2. Particulars: for MBC: Enterococcus faecalis, CNCM5855, 0.5 h, read-out: MBC, strain 2. The method, then: as §1
2 - Streptococcus faecalis CNCM 5855;
as §4, §5, §6, §2, §7

[7] abbreviates: Pseudomonas aeruginosa CNCM A22, contact time 30 minutes, solubilizing agent given per product.
[8] abbreviates: Staphylococcus aureus CNCM 53154, contact time 30 minutes, solubilizing agent (water, TEG or acetone) given per product.
Setting [9] is: Escherichia coli CNCM 54127, contact time 30 minutes, solubilizing agent given per product.
Where [10] appears, read: Candida albicans CNCM 1180, contact time 30 minutes, solubilizing agent given per product.
The mark [11] stands for this setting: Streptococcus faecalis CNCM 5855, contact time 30 minutes, solubilizing agent given per product.

Converted amounts (≈) assume the structure as drawn. Where two headings read alike, the source gives them in different places. Bounds are passed on as bounds.

One may read the MBC as the lowest tested concentration that kills the bacteria rather than only halting them. Broadly, the MFC is the smallest concentration meeting the test's criterion for killing the fungus.

As for `CC1CCN(CC(O)COc2ccc(Br)cc2)CC1.Cl` (stereo not drawn) [Product A, 3-(4-bromophenoxy)-1-(4-methylpiperidino)propan-2-ol hydrochloride, reference compound], the “antimicrobial activity (in words)” value in test [1] is “no antimicrobial activity”. Further, the minimal bactericidal concentration (MBC) in test [2] (setting [7]) is 1000 µg/mL; in test [3] (setting [8]), more than 2000 µg/mL; in test [4] (setting [9]), 1000 µg/mL; in test [6] (setting [11]), 1000 µg/mL. The MFC in test [5] (setting [10]) was found to be 5000 µg/mL.

With `Cl.OC(COc1ccccc1)CN1CCC(c2ccccc2)CC1` (stereo not drawn) [Product B, 3-phenoxy-1-(4-phenylpiperidino)propan-2-ol hydrochloride, reference compound], in test [1], the “antimicrobial activity (in words)” value was “no antimicrobial activity”. In addition, the minimal bactericidal concentration (MBC) in test [2] (setting [7]), in test [3] (setting [8]), in test [4] (setting [9]) and in test [6] (setting [11]) was more than 1000 µg/mL in each case. The MFC in test [5] (setting [10]) was more than 1000 µg/mL.

For `Cl.OC(CSc1ccc(Br)cc1)CN1CCCCC1` (stereo not drawn) [Product C, 3-(4-bromophenylthio)-1-piperidinopropan-2-ol hydrochloride, reference compound], the “antimicrobial activity (in words)” value in test [1] is given as “no antimicrobial activity”. In addition, the MBC in test [2] (setting [7]), in test [3] (setting [8]), in test [4] (setting [9]) and in test [6] (setting [11]) was more than 1000 µg/mL in each case. The MFC in test [5] (setting [10]) amounted to 1000 µg/mL.

As for `CC(C)NCC(O)COc1cccc2ccccc12` (stereo not drawn) [Propranolol, propranolol, reference compound], in test [1], the “antimicrobial activity (in words)” value is reported as “no antimicrobial activity”. Besides, the MBC in test [2] (Pseudomonas aeruginosa) worked out at 1000 µg/mL (≈ 3.86 mM); in test [3] (Staphylococcus aureus) it was 5000 µg/mL (≈ 19.3 mM); in test [4] (Escherichia coli), 1000 µg/mL (≈ 3.86 mM); in test [6] it was 1000 µg/mL (≈ 3.86 mM). For the same compound, the MFC in test [5] (Candida albicans) was 5000 µg/mL (≈ 19.3 mM).

Regarding `Cl.OC(COc1ccc2ccccc2c1Br)CN1CCC(Cc2ccccc2)CC1` (stereo not drawn) [SR 44716 A, 1-(4-Benzylpiperidino)-3-(1-bromonaphth-2-yloxy)propan-2-ol hydrochloride], the MBC in test [2] (setting [7]) was determined as 10 µg/mL; in test [3] (setting [8]), 50 µg/mL; in test [4] (setting [9]), 10 µg/mL; in test [6] (setting [11]), 50 µg/mL. For the same compound, in test [5] (setting [10]), the MFC was found to be 50 µg/mL.

On to `Cl.OC(COc1ccc(Cl)cc1Cc1ccccc1)CN1CCC(Cc2ccccc2)CC1` (stereo not drawn) [SR 44719 A, 3-(2-Benzyl-4-chlorophenoxy)-1-(4-benzylpiperidino)propan-2-ol hydrochloride], for which the MBC worked out at 10 µg/mL in test [2] (setting [7]), 10 µg/mL in test [3] (setting [8]), 5 µg/mL in test [4] (setting [9]) and 10 µg/mL in test [6] (setting [11]). The MFC in test [5] (setting [10]) amounted to 50 µg/mL.

Consider `CS(=O)(=O)O.OC(COc1ccc(Cl)cc1Cl)CN1CCCC(Cc2ccccc2)C1` (stereo not drawn) [SR 44957 A, 1-(3-Benzylpiperidino)-3-(2,4-dichlorophenoxy)propan-2-ol methanesulfonate], for which the “MBC, strain 3” value in test [2] (setting [7]) was not above 10 µg/mL. Also, the “MBC, strain 1” value in test [3] (setting [8]) stood at 50 µg/mL. The “MBC, strain 4” value in test [4] (setting [9]) is not above 10 µg/mL. The “MFC, strain 5” value in test [5] (setting [10]) was 50 µg/mL. Moreover, in test [6] (setting [11]), the “MBC, strain 2” value is not above 10 µg/mL.

Source of the values: patent publication US5036077A, “1-(benzylpiperidino)propan-2-ol derivatives, their preparation, their use as antimicrobial agents and the products in which they are present” (Sanofi, priority 1987, dated 1991).
